From patent US12173018B2, “Penicillin-binding protein inhibitors” (priority 2018, dated 2024)
Values after ≈ are worked out from the molar mass of the structure shown. Where two headings read alike, the source gives them in different places.

Key:
Type in all cases: cell-based
[1] = system: E. coli ATCC 25922; experiment: Broth microdilution MIC, E. coli ATCC 25922; conditions: Escherichia coli, ATCC25922; E. coli ATCC 25922, broth microdilution; read-out: MIC E. coli 25922
Method in brief: (§1)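 Following CLSI guidance, growth inhibition is measured in Mueller-Hinton broth with divalent cations. Inoculum 5×10^5 CFU/mL; incubation 16-20 hours, 37° C; endpoint is visual absence of growth.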

[2] = system: E. coli 901C; experiment: microbe, parasite or virus in culture; conditions: Escherichia coli, read-out: MIC E. coli 901C
Method in brief: as §1

[3] = system: E. coli AG100A; experiment: microbe, parasite or virus in culture; conditions: Escherichia coli, read-out: MIC E. coli AG100A
Method in brief: as §1

[4] = system: E. coli D22; experiment: microbe, parasite or virus in culture; conditions: Escherichia coli
Method in brief: as §1

[5] = system: K. pneumoniae SI-117; experiment: microbe, parasite or virus in culture; conditions: Klebsiella pneumoniae, SI117, read-out: MIC K. pneumoniae SI-117
Method in brief: as §1

[6] = system: K. pneumoniae UMM; experiment: microbe, parasite or virus in culture; conditions: Klebsiella pneumoniae, read-out: MIC K. pneumoniae UMM
Method in brief: as §1

[7] = system: N. gonorrhoeae ATCC 49226; experiment: Liquid broth MIC, N. gonorrhoeae ATCC 49226; conditions: Neisseria gonorrhoeae, ATCC49226; N. gonorrhoeae ATCC 49226, liquid broth; read-out: Minimum Inhibitory Concentration, N. gonorrhoeae ATCC 49226
Method in brief: (§2)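 Colonies sub-cultured 24 h earlier on supplemented GC agar are suspended in broth, adjusted by optical density at 600 nm and added to 2-fold serial compound dilutions at 5×10^5 CFU/mL. Plates incubate 40-42 hours at 36° C with 5% CO2 before visual MIC reading.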

[8] = system: N. gonorrhoeae WHO F; experiment: Liquid broth MIC, N. gonorrhoeae WHO F; conditions: Neisseria gonorrhoeae; N. gonorrhoeae WHO F, liquid broth; read-out: Minimum Inhibitory Concentration, N. gonorrhoeae WHO F
Method in brief: as §2

[9] = hyper-permeable E. coli 901C, broth microdilution
[10] = hyper-permeable E. coli D22, broth microdilution, read-out: MIC E. coli D22
[11] = K. pneumoniae UMM producing SHV-5 and KPC-2

Compound `CCN1CCN(C(=O)NC(C(=O)N[C@H]2Cc3cccc(C(=O)O)c3OB2O)c2csc(N)n2)C(=O)C1=O` (stereo partly drawn) [Example 5, (3R)-3-(2-(2-aminothiazol-4-yl)-2-(4-ethyl-2,3-dioxopiperazine-1-carboxamido)acetamido)-2-hydroxy-3,4-dihydro-2H-benzo[e][1,2]oxaborinine-8-carboxylic acid] has an MIC [1] of 8 to 16 µg/mL, an MIC [2, 9] of under 0.25 µg/mL and an MIC [3] of 2 to 4 µg/mL. For the same compound, the MIC [4, 10] was 2 to 4 µg/mL, the MIC [5] was 8 to 16 µg/mL and the MIC [6, 11] was 8 to 16 µg/mL. The MIC [7] was 1 to 2 µg/mL (≈ 1.89 to 3.77 µM) and the MIC [8] was under 0.125 µg/mL.
`CCN1CCN(C(=O)NC(C(=O)N[C@H]2Cc3cccc(C(=O)O)c3OB2O)c2ccc(O)c(O)c2F)C(=O)C1=O` (stereo partly drawn) [Example 70] was tested, and the MIC [1] was 2 to 4 µg/mL, the MIC [2, 9] was 0.5 to 1 µg/mL and the MIC [3] was 0.5 to 1 µg/mL. It also gave an MIC [4, 10] of 2 to 4 µg/mL, an MIC [5] of 8 to 16 µg/mL and an MIC [6, 11] of 0.5 to 1 µg/mL. The MIC [7] was 0.25 to 0.5 µg/mL (≈ 0.448 to 0.896 µM) and the MIC [8] was under 0.125 µg/mL.
For `CCN1CCN(C(=O)NC(C(=O)N[C@H]2Cc3cccc(C(=O)O)c3OB2O)c2ccc(S(N)(=O)=O)cc2)C(=O)C1=O` (stereo partly drawn) [Example 102, (3R)-3-(2-(4-ethyl-2,3-dioxopiperazine-1-carboxamido)-2-(4-sulfamoylphenyl)acetamido)-2-hydroxy-3,4-dihydro-2H-benzo[e][1,2]oxaborinine-8-carboxylic acid], the MIC [1] was 32 to 64 µg/mL, the MIC [2, 9] was under 0.25 µg/mL and the MIC [3] was 2 to 4 µg/mL. It also gave an MIC [6, 11] of 32 to 64 µg/mL, an MIC [7] of 1 to 2 µg/mL (≈ 1.7 to 3.4 µM) and an MIC [8] of under 0.125 µg/mL.
`NS(=O)(=O)c1ccc(C(NC(=O)N2CCN(CCF)C(=O)C2=O)C(=O)N[C@H]2Cc3cccc(C(=O)O)c3OB2O)cc1` (stereo partly drawn) [Example 103, (3R)-3-(2-(4-(2-fluoroethyl)-2,3-dioxopiperazine-1-carboxamido)-2-(4-sulfamoylphenyl)acetamido)-2-hydroxy-3,4-dihydro-2H-benzo[e][1,2]oxaborinine-8-carboxylic acid] was tested, and the MIC [1] was 32 to 64 µg/mL, the MIC [2, 9] was under 0.25 µg/mL and the MIC [3] was 2 to 4 µg/mL. For the same compound, the MIC [6, 11] was 32 to 64 µg/mL, the MIC [7] was 1 to 2 µg/mL (≈ 1.65 to 3.3 µM) and the MIC [8] was under 0.125 µg/mL.
In the case of `CCN1CCN(C(=O)NC(C(=O)N[C@H]2Cc3ccc(F)c(C(=O)O)c3OB2O)c2csc(N)n2)C(=O)C1=O` (stereo partly drawn) [Example 109, (3R)-3-(2-(2-aminothiazol-4-yl)-2-(4-ethyl-2,3-dioxopiperazine-1-carboxamido)acetamido)-7-fluoro-2-hydroxy-3,4-dihydro-2H-benzo[e][1,2]oxaborinine-8-carboxylic acid], the MIC [1] is reported as 8 to 16 µg/mL, the MIC [2, 9] is reported as 0.5 to 1 µg/mL and the MIC [3] is reported as 8 to 16 µg/mL. The MIC [4, 10] was 2 to 4 µg/mL, the MIC [5] was 8 to 16 µg/mL and the MIC [6, 11] was 8 to 16 µg/mL. It also gave an MIC [7] of 1 to 2 µg/mL (≈ 1.82 to 3.65 µM) and an MIC [8] of 0.25 to 0.5 µg/mL (≈ 0.456 to 0.912 µM).
For `CCN1CCN(C(=O)NC(C(=O)N[C@H]2Cc3cccc(C(=O)O)c3OB2O)c2ccc(B(O)O)cc2)C(=O)C1=O` (stereo partly drawn) [Example 112], the MIC [1] was 32 to 64 µg/mL, the MIC ([2]; 901C) was under 0.25 µg/mL and the MIC [3] was 2 to 4 µg/mL. The MIC ([4]; D22, read-out: MIC E. coli D22) was 2 to 4 µg/mL, the MIC [5] was over 128 µg/mL and the MIC [6] was 32 to 64 µg/mL. For the same compound, the MIC [7] was 1 to 2 µg/mL (≈ 1.81 to 3.62 µM) and the MIC [8] was under 0.125 µg/mL.
In the case of `O=C(O)c1cccc2c1OB(O)[C@@H](NC(=O)C(NC(=O)N1CCN(CCF)C(=O)C1=O)c1ccc(B(O)O)cc1)C2` (stereo partly drawn) [Example 113, (3R)-3-(2-(4-boronophenyl)-2-(4-(2-fluoroethyl)-2,3-dioxopiperazine-1-carboxamido)acetamido)-2-hydroxy-3,4-dihydro-2H-benzo[e][1,2]oxaborinine-8-carboxylic acid], the MIC [1] is reported as 32 to 64 µg/mL, the MIC [2, 9] is reported as under 0.25 µg/mL and the MIC [3] is reported as 2 to 4 µg/mL. For the same compound, the MIC [4, 10] was 8 to 16 µg/mL, the MIC [5] was over 128 µg/mL and the MIC [6, 11] was 32 to 64 µg/mL. It also gave an MIC [7] of 1 to 2 µg/mL (≈ 1.75 to 3.51 µM) and an MIC [8] of under 0.125 µg/mL.
Compound `CCN1CCN(C(=O)NC(C(=O)N[C@H]2Cc3ccc(F)c(C(=O)O)c3OB2O)c2ccc(O)c(O)c2Cl)C(=O)C1=O` (stereo partly drawn) [Example 124, (3R)-3-(2-(2-chloro-3,4-dihydroxyphenyl)-2-(4-ethyl-2,3-dioxopiperazine-1-carboxamido)acetamido)-7-fluoro-2-hydroxy-3,4-dihydro-2H-benzo[e][1,2]oxaborinine-8-carboxylic acid] has an MIC [1] of 8 to 16 µg/mL, an MIC [2, 9] of under 0.25 µg/mL and an MIC [3] of 0.5 to 1 µg/mL. The MIC [4, 10] was 0.5 to 1 µg/mL, the MIC [5] was 8 to 16 µg/mL and the MIC [6, 11] was 8 to 16 µg/mL. The MIC [7] was 1 to 2 µg/mL (≈ 1.69 to 3.37 µM) and the MIC [8] was under 0.125 µg/mL.
In the case of `CCCN1CCN(C(=O)NC(C(=O)N[C@H]2Cc3ccc(F)c(C(=O)O)c3OB2O)c2ccc(O)c(O)c2Cl)C(=O)C1=O` (stereo partly drawn) [Example 125], the MIC [1] is reported as 2 to 4 µg/mL, the MIC [2, 9] is reported as 0.5 to 1 µg/mL and the MIC [3] is reported as 2 to 4 µg/mL. The MIC [4, 10] was 0.5 to 1 µg/mL, the MIC [5] was 2 to 4 µg/mL and the MIC [6, 11] was 32 to 64 µg/mL. For the same compound, the MIC [7] was 4 to 8 µg/mL (≈ 6.59 to 13.2 µM) and the MIC [8] was 0.25 to 0.5 µg/mL (≈ 0.412 to 0.824 µM).
For `O=C(O)c1c(F)ccc2c1OB(O)[C@@H](NC(=O)C(NC(=O)N1CCN(CCF)C(=O)C1=O)c1ccc(O)c(O)c1Cl)C2` (stereo partly drawn) [Example 131], the MIC [1] was 2 to 4 µg/mL, the MIC [2, 9] was 0.5 to 1 µg/mL and the MIC [3] was 2 to 4 µg/mL. The MIC [4, 10] was 2 to 4 µg/mL, the MIC [5] was 8 to 16 µg/mL and the MIC [6, 11] was 8 to 16 µg/mL. The MIC [7] was 4 to 8 µg/mL (≈ 6.55 to 13.1 µM) and the MIC [8] was 0.25 to 0.5 µg/mL (≈ 0.409 to 0.819 µM).
`CCN1CCN(C(=O)NC(C(=O)N[C@H]2Cc3cccc(C(=O)O)c3OB2O)c2ncc(O)cc2F)C(=O)C1=O` (stereo partly drawn) [Example 135, (3R)-3-(2-(4-ethyl-2,3-dioxopiperazine-1-carboxamido)-2-(3-fluoro-5-hydroxypyridin-2-yl)acetamido)-2-hydroxy-3,4-dihydro-2H-benzo[e][1,2]oxaborinine-8-carboxylic acid] showed an MIC [1] of 2 to 4 µg/mL, an MIC [2, 9] of under 0.25 µg/mL and an MIC [3] of 2 to 4 µg/mL. It also gave an MIC [4, 10] of 0.5 to 1 µg/mL, an MIC [5] of 32 to 64 µg/mL and an MIC [6, 11] of 8 to 16 µg/mL. It also gave an MIC [7] of 1 to 2 µg/mL (≈ 1.84 to 3.68 µM) and an MIC [8] of under 0.125 µg/mL.
`CCN1CCN(C(=O)NC(C(=O)N[C@H]2Cc3ccc(F)c(C(=O)O)c3OB2O)c2cc(O)c(O)cc2F)C(=O)C1=O` (stereo partly drawn) [Example 136, (3R)-3-(2-(4-ethyl-2,3-dioxopiperazine-1-carboxamido)-2-(2-fluoro-4,5-dihydroxyphenyl)acetamido)-7-fluoro-2-hydroxy-3,4-dihydro-2H-benzo[e][1,2]oxaborinine-8-carboxylic acid] showed an MIC [1] of 8 to 16 µg/mL, an MIC [2, 9] of 0.5 to 1 µg/mL and an MIC [3] of 2 to 4 µg/mL. For the same compound, the MIC [4, 10] was 2 to 4 µg/mL, the MIC [5] was over 128 µg/mL and the MIC [6, 11] was 8 to 16 µg/mL. The MIC [7] was 1 to 2 µg/mL (≈ 1.74 to 3.47 µM) and the MIC [8] was 1 to 2 µg/mL (≈ 1.74 to 3.47 µM).
In the case of `CCN1CCN(C(=O)NC(C(=O)N[C@H]2Cc3ccc(F)c(C(=O)O)c3OB2O)c2ncc(O)cc2F)C(=O)C1=O` (stereo partly drawn) [Example 145, (3R)-3-(2-(4-ethyl-2,3-dioxopiperazine-1-carboxamido)-2-(3-fluoro-5-hydroxypyridin-2-yl)acetamido)-7-fluoro-2-hydroxy-3,4-dihydro-2H-benzo[e][1,2]oxaborinine-8-carboxylic acid], the MIC [1] is reported as 8 to 16 µg/mL, the MIC [2, 9] is reported as 0.5 to 1 µg/mL and the MIC [3] is reported as 2 to 4 µg/mL. It also gave an MIC [4, 10] of 2 to 4 µg/mL, an MIC [5] of 32 to 64 µg/mL and an MIC [6, 11] of 8 to 16 µg/mL. It also gave an MIC [7] of 0.25 to 0.5 µg/mL (≈ 0.445 to 0.891 µM) and an MIC [8] of under 0.125 µg/mL.
In the case of `CCN1CCN(C(=O)NC(C(=O)N[C@H]2Cc3ccc(F)c(C(=O)O)c3OB2O)c2ccc(O)c(O)c2F)C(=O)C1=O` (stereo partly drawn) [Example 149, (3R)-3-(2-(4-ethyl-2,3-dioxopiperazine-1-carboxamido)-2-(2-fluoro-3,4-dihydroxyphenyl)acetamido)-7-fluoro-2-hydroxy-3,4-dihydro-2H-benzo[e][1,2]oxaborinine-8-carboxylic acid], the MIC [1] is reported as 8 to 16 µg/mL, the MIC [2, 9] is reported as 0.5 to 1 µg/mL and the MIC [3] is reported as 0.5 to 1 µg/mL. It also gave an MIC [4, 10] of 2 to 4 µg/mL, an MIC [5] of 2 to 4 µg/mL and an MIC [6, 11] of 2 to 4 µg/mL. The MIC [7] was 1 to 2 µg/mL (≈ 1.74 to 3.47 µM) and the MIC [8] was under 0.125 µg/mL.
